For one experiment, the system named is rat mixed glial culture. Description: Activity of promoting neuronal neogenesis in rat mixed glial culture. Format: cell-based. The note with it: compound 1 μM + rhIGF-1 100 ng/ml, 3 days culture, absorbance at 450 nm (class III beta-tubulin antibody), control rhIGF-1 only = 100%; for activity at 1 µM: Rattus norvegicus, 72 h, read-out: Increase Ratio of the Absorbance (% control). As to the method: From a three-day old SD rat, hippocampus and cerebral cortex were removed. By using a kit of dispersion liquid for neuronal cells (MB-X9901, manufactured by SUMITOMO BAKELITE CO., LTD.), cell suspension was prepared and then seeded on a 96-well plate coated with collagen Type I (4860-010, manufactured by Asahi Techno Glass Co., Ltd.) to 10^5 cells/well. Under the condition of 37° C. and 5% CO2, the cells were cultured for four days in a growth medium (D-MEM/F12 with 10% FBS, comprising PS).
After culturing, the medium was exchanged with a medium for differentiation (D-MEM/F12, comprising PS), added with rhIGF-1 (R&D Systems, 291-G1-250, final concentration of 100 ng/ml) and the compound to 1 μM, followed by further culture for three days. Cultured cells were fixed with 4% paraformaldehyde-PBS (manufactured by MUTO PURE CHEMICALS CO., LTD.) and subjected to membrane penetration using 0.1% Triton X-100 PBS, followed by blocking with Block Ace solution (UK-B80, manufactured by Dainippon Sumitomo Pharma Co., Ltd.). As a primary antibody, Anti-neuron-specific class III beta-tubulin antibody (R&D Systems, MAB1195, clone Tuj-1) was used after 1000× dilution. As a secondary antibody, Anti-Mouse Ig, HRP-Linked F (ab′) 2 Fragment Sheep (Amersham Biosciences, NA9310) was used after 10000× dilution. For washing process, the plate washer (BIO-TEK INSTRUMENTS ELX405) was used. For a chromogenic reaction, the reaction was carried out for 10 minutes using TMB Microwell Peroxidase Substrate System (Kirkegaard & Perry Laboratories, 50-76-00), followed by terminating the reaction according to the addition of 1M phosphoric acid. By using the plate reader (Labsystems Multiskan BICHROMATIC), absorbance at 450 nm was measured.
The absorbance for the case in which no compound is added (i.e., control, rhIGF-1 only) was 100%, and the increase ratio of the absorbance for the compound addition (i.e., compound+rhIGF-1) compared to the control was obtained as % control. Activity of the each compound for promoting neuronal differentiation that is measured according to the above method is summarized in Table 9 and Table 10.

For a further experiment, the system named is Akt protein. Description: Activity of inhibiting Akt protein degradation in rat mixed glial culture. To be noted: compound 1 μM + rhIGF-1 100 ng/ml, 10 minutes at 37° C.; Akt calibrated with ERK; no addition = 100%, rhIGF-1 only = 0%. It is filed as cell-based. The procedure: The mixed glial cells used in the Test example 1 were seeded on a 6-well plate coated with collagen Type I (manufactured by Asahi Techno Glass Co., Ltd.) to 4×10^6 cells/well. Under the condition of 37° C. and 5% CO2, the cells were cultured for four days in a growth medium (D-MEM/F12 with 10% FBS, comprising PS). After that, the medium was exchanged with a serum-free medium (D-MEM/F12, comprising PS) and the cells were subjected to starvation for 4 hours under the condition of 37° C. and 5% CO2.
Next, rhIGF-1 (R&D Systems, 291-G1-250, final concentration 100 ng/ml) and the compound were added to obtain 1 μM and reacted in a water bath incubator at 37° C. for 10 minutes. Culture supernatant was aspirated off, 150 μL of RIPA (50 mM Tris-HCl pH7.5, 5 mM EDTA, 100 mM NaCl, 30 mM NaF, 5 mM sodium diphosphate, 137 mg/l pepstatin A, 2.5 KIU/l aprotinin, 1% NP-40, 6 mM sodium deoxycholate, 1 μM microcystinLR, 1 μM Z-Leu-Leu-Nva-H(aldehyde), 48 μM leupeptin, 96 μM 4-(2-aminoethyl)benzenesulfonyl fluoride-HCl, 1 mM sodium orthovanadate) was added thereto, and the reaction was terminated. After the termination of the reaction, the cell lysate was recovered by using a cell scraper on ice. Finally, the cell lysate was centrifuged for 30 minutes at 15000 rpm and the supernatant was taken as a cell extract.
Proteins were recovered from the cell extract by using trichloroacetic acid, and quantified according to Lowry method. Standard curve was established with bovine serum albumin. Based on the measured values, each cell extract was diluted with RIPA to prepare it in constant concentration (10 μg/lane). SDS-PAGE was carried out under reducing condition using 10% acrylamide (45 mA, 1.5 hours). After transferring to a PVDF membrane (0.13 A, 1 hour), reaction with an antibody was carried out. As a primary antibody, Akt (Cell Signaling, 9272) and ERK (Santa Cruz, sc-94) were used with the dilution ratio of 1000. As a secondary antibody, HRP-labeled anti-rabbit antibody (NA9340V, manufactured by Amersham) was used with the dilution ratio of 12500. Then, using ImmunoStar reagent (291-55203, manufactured by Wako Pure Chemical Industries, Ltd.), X-ray film detection was carried out. Quantification of the results was carried out by using GS-800 Calibrated Densitometer (manufactured by BioRad), and then the band strength was converted into the numerals by multiplying the absorbance originating from bands of Akt and ERK-1&2 by the area. Akt was calibrated with ERK to give the numeral values.
Inhibitory activity on Akt degradation was expressed as inhibition ratio. Specifically, the case in which neither the compound nor rhIGF-1 was added (no addition) is 100% and the case in which only rhIGF-1 was added is 0%, and then with the value measured from compound+rhIGF-1, the inhibition ratio was obtained. Inhibition ratio(%)=[(compound+rhIGF-1)−(rhIGF-1)]÷[(no addition)−(rhIGF-1)]×100

The structures appear in SMILES notation. Counter-ions that a name gives are not always drawn.

Regarding `CCOc1ccc(N2CCN(c3c(C)c4c(c(OC)c3C)OC(C)(C)C4)CC2)cc1` [Example 65, 1-(4-Ethoxyphenyl)-4-(7-methoxy-2,2,4,6-tetramethyl-2,3-dihydro-1-benzofuran-5-yl)piperazine], the activity at 1 µM with rat mixed glial culture is > 500%. Besides, the “Inhibition of Akt degradation (%)” value in the experiment with Akt protein came out at 121.0%.

In the case of `COc1ccc(N2CCN(c3c(C)c(C)c4c(c3C)CC(C)(C)O4)CC2)c(OC)c1` [Example 1, 1-(2,4-Dimethoxyphenyl)-4-(2,2,4,6,7-pentamethyl-2,3-dihydro-1-benzofuran-5-yl)piperazine], the activity at 1 µM with rat mixed glial culture was 407%. In addition, the “Inhibition of Akt degradation (%)” value with Akt protein is reported as 73.3%.

With `COc1ccc(N2CCN(c3c(C)c(C)c4c(c3C)C[C@@H](C)O4)CC2)cc1` [Example 21, 1-(4-Methoxyphenyl)-4-[(2R)-2,4,6,7-tetramethyl-2,3-dihydro-1-benzofuran-5-yl]piperazine], the activity at 1 µM in the experiment with rat mixed glial culture was 212%. Further, in the experiment on Akt protein, the “Inhibition of Akt degradation (%)” value is recorded as 121.3%.

For `COc1ccc(N2CCN(c3c(C)c(C)c4c(c3C)CC(C)O4)CC2)cc1` (stereo not shown) [Example 20, 1-(4-Methoxyphenyl)-4-[2,4,6,7-tetramethyl-2,3-dihydro-1-benzofuran-5-yl]piperazine], in the experiment on rat mixed glial culture, the activity at 1 µM came to 187%. Also, in the experiment on Akt protein, the “Inhibition of Akt degradation (%)” value came to 73.9%.

As to `COc1ccc(N2CCN(c3c(C)c(C)c4c(c3C)CC(C)(CN(C)C)O4)CC2)cc1` (stereo not shown) [Example 102, 1-{5-[4-(4-Methoxyphenyl)piperazin-1-yl]-2,4,6,7-tetramethyl-2,3-dihydro-1-benzofuran-2-yl}-N,N-dimethylmethaneamine], the activity at 1 µM in the experiment with rat mixed glial culture came out at 347%.

Take `Cc1c(C)c(N2CCN(c3nc(-c4ccccc4)ns3)CC2)c(C)c2c1OC(C)(C)C2` [Example 87, 1-(2,2,4,6,7-Pentamethyl-2,3-dihydro-1-benzofuran-5-yl)-4-(3-phenyl-1,2,4-thiadiazol-5-yl)piperazine]: the activity at 1 µM in the experiment with rat mixed glial culture worked out at 256%.

`COc1ccc(N2CCN(c3c(C)c4c(c(OC(C)C)c3C)OC(C)C4)CC2)cc1` (stereo not shown) [Example 55, 1-(4-Methoxyphenyl)-4-[2,4,6-trimethyl-7-(1-methylethoxy)-2,3-dihydro-1-benzofuran-5-yl]piperazine]: in the experiment with rat mixed glial culture, the activity at 1 µM is > 500%.

For the compound `COc1ccc(N2CCN(c3c(C)c(C)c4c(c3C)CC(C)(C)O4)CC2)cc1OC` [Example 37, 1-(3,4-Dimethoxyphenyl)-4-(2,2,4,6,7-pentamethyl-2,3-dihydro-1-benzofuran-5-yl)piperazine], in the experiment on rat mixed glial culture, the activity at 1 µM was > 500%.

Turning to `COc1ccc(N2CCN(c3c(C)c(C)c4c(c3C)CC(C)(CO)O4)CC2)cc1` (single isomer, unassigned; (+)) [Example 144, (+)-{5-[4-(4-methoxyphenyl)piperazin-1-yl]-2,4,6,7-tetramethyl-2,3-dihydro-1-benzofuran-2-yl}methanol], the “Increase Ratio of the Absorbance (% control)” value in the experiment on rat mixed glial culture was >500 % control.

Take `COc1ccc(N2CCN(c3c(C)c(C)c4c(c3-c3ccc(N(C)C)cc3)CC(C)(C)O4)CC2)cc1` [Example 5, 4-{5-[4-(4-Methoxyphenyl)piperazin-1-yl]-2,2,6,7-tetramethyl-2,3-dihydro-1-benzofuran-4-yl}-N,N-dimethylaniline]: the activity at 1 µM in the experiment on rat mixed glial culture was 488%.

Consider `COCC1(C)Cc2c(C)c(N3CCN(c4ccc(OC)cc4)CC3)c(C)c(C)c2O1` (stereo not shown) [Example 101, 1-[2-(Methoxymethyl)-2,4,6,7-tetramethyl-2,3-dihydro-1-benzofuran-5-yl]-4-(4-methoxyphenyl)piperazine hydrochloric acid salt], for which the activity at 1 µM with rat mixed glial culture was > 500%.

Take `COc1ccc(N2CCN(c3c(C)c(C)c4c(c3C)CC(C)(CN3CCCC3)O4)CC2)cc1` (stereo not shown) [Example 116, 1-(4-Methoxyphenyl)-4-[2,4,6,7-tetramethyl-2-(pyrrolidin-1-ylmethyl)-2,3-dihydro-1-benzofuran-5-yl]piperazine]: in the experiment with rat mixed glial culture, the activity at 1 µM is 276%.

With `CCOc1ccc(N2CCN(c3c(C)c4c(c(OC)c3C)OC(C)C4)CC2)cc1` (stereo not shown) [Example 56, 1-(4-Ethoxyphenyl)-4-(7-methoxy-2,4,6-trimethyl-2,3-dihydro-1-benzofuran-5-yl)piperazine], in the experiment on rat mixed glial culture, the activity at 1 µM is > 500%.

Consider `COc1c(C)c(N2CCN(c3ccc(C)cc3)CC2)c(C)c2c1OC(C)(C)C2` [Example 62, 1-(7-Methoxy-2,2,4,6-tetramethyl-2,3-dihydro-1-benzofuran-5-yl)-4-(4-methylphenyl)piperazine], for which the activity at 1 µM in the experiment on rat mixed glial culture is > 500%.

As to `COc1cc(N2CCN(c3c(C)c(C)c4c(c3C)CC(C)(C)O4)CC2)ccc1F` [Example 38, 1-(4-Fluoro-3-methoxyphenyl)-4-(2,2,4,6,7-pentamethyl-2,3-dihydro-1-benzofuran-5-yl)piperazine], in the experiment on rat mixed glial culture, the activity at 1 µM was determined as 294%.

(Values after patent publication US8288390B2, “Benzofuran derivatives” (Takeda Pharmaceutical Company Limited, priority 2009, dated 2012).)
